According to patent publication US7482008B1, “Human T cell reactive feline protein (TRFP) isolated from house dust and uses therefor” (Merck Patent GmbH, priority 1989, dated 2009):

How the values were obtained:
[1] = tested on: T cells from cat allergic patients; assay: T cell proliferation of TRFP-primed T cells from cat allergic patients (tritiated thymidine), Example 5 Part A; assay type: cell-based, human
Method: Peripheral blood mononuclear cells (PBMC) were purified from 60 ml of heparinized blood from cat allergic patients. PBMC were subsequently treated as described below, although in individual cases, the length of time of cultivation with IL-2 and/or IL-4 and the specific peptides used for stimulation varied.
10 ml of PBMC from patient 131 at 10^6 /ml were cultured at 37° C. for 7 days in the presence of 5 μg purified TRFP/ml RPMI-1640 supplemented with 5% pooled human AB serum. Viable cells were purified by Ficoll-Hypaque centrifugation and cultured for three weeks at 5 units recombinant human IL-2/ml and 5 units recombinant human IL-4/ml. The resting T cells were then restimulated (secondary) with 5 μg TRFP at 2×10^5/ml in the presence of irradiated (3500 Rads) autologous PBMC at a concentration of 5×10^5/ml for three days, purified by Ficoll-Hypaque centrifugation and grown in 5 units IL-2 and 5 units IL-4/ml for two weeks. For assay, 2×10^4 resting secondary T cells were restimulated (tertiary) in the presence of 5×10^4 irradiated (3500 Rads) autologous PBMC or 2×10^4 transformed B cells (20,000 Rads) with various concentrations of allergens or their fragments in a volume of 200 microliters in a 96-well round bottom assay plates for 3 days. Each well then received 1 μCurie tritiated (methyl) thymidine for 16 hours. The counts incorporated were collected onto glass fiber filters and processed for liquid scintillation counting.
Antigens used: T cell reactive feline protein (TRFP), Hollister-Stier cat epithelium skin test reagent (CST), IPC ragweed pollen extract (pollen), and synthetic peptides derived from TRFP protein sequence (See FIGS. 6 and 7). Positive T cell proliferation is for these experiments was considered to be greater than 2.5 times the media control (T cells and antigen presenting cells alone).
Alternatively, PBMC were treated as follows: The primary stimulated cells were cultured in IL-2/IL-4 for two weeks. The resting T cells derived from this culture were tested in a secondary assay with some, but not all, of the above allergens. […] This type of epitope analysis has allowed the definition of T cell epitopes present in TRFP.

human IgE = assay: SDS/PAGE Western immunoblot of human IgE binding, plasma from patient #417; details: patient #417 plasma
Method: Western immunoblot analysis of the peptides produced in above was performed. The concentration of all protein samples (e.g., TRFP, recombinant chain 1 of TRFP, recombinant chain 2 of TRFP, peptide XYZ, peptide XZY, peptide YXZ, peptide YZX, peptide ZXY and peptide ZYX) for gel electrophoresis was determined by the BCA method (Pierce Co.). All protein samples were loaded on the gel at 5 μg/lane except TRFP at 10 μg/lane. Protein separation was carried out on a 15% acrylamide gel, and transfer was performed by electroblotting at 1.5 Amps for 1.5 hours onto nitrocellulose paper (Schleicher and Schuell, 0.1 microns) in a Hoeffer apparatus according to the protocol of Towbin, H., T. Stachlin, and J. Gordon, PNAS 76:4350 (1979). Proteins were rinsed in blot solution (25 mM Tris-HCl 7.5, 0.171 M NaCl and 0.5 ml/liter Tween 20). The blot was then blocked for one hour in blocking solution (1% milk in blot solution). Plasma from patient #417, used as a primary antibody source, was diluted in blocking solution to 10% and preabsorbed for 1.5 hours with unused nitrocellulose (2 cm×15 cm). The prepared human plasma was then incubated overnight on an orbital shaker with the protein blot section of interest. Following the first antibody incubation the blot section was washed three times, each wash involved a fifteen minute incubation in blot solution. The second antibody, specific for human IgE (biotinylated goat anti-human IgE, KPL Inc.), was diluted 1:2500 in blot solution and the incubation proceeded for two hours. Excess second antibody was subsequently removed by three 15 minute incubations with blot solution. ^125I Iodinated streptavidin (Amersham) was diluted 1:2500 in blot solution and incubated with blots for 1 hour, at 2 μCi in a 50 ml incubation volume. Blot sections were then washed with blot solution until the detectable radioactivity in the waste solution decreased to background levels. The blot section was then wrapped in saran wrap and exposed to film overnight with a cronex intensifying screen at −80° C.

B6CBAF1 mice = assay: Murine T cell response after immunization with peptide YZX, IL-2 production (CTLL-2); assay type: in vivo, mouse; details: mice immunized with 100 μg peptide YZX in CFA; label = antigen in culture
Method: 10 B6CBAF1 mice were immunized subcutaneously at the base of the tail and in the thigh region with 100 μg of peptide YZX in complete Freund's adjuvant. After 10 days, the inguinal, paraaortic, and popliteal nodes of the immunized mice were removed and pooled. The lymph node cells were suspended in cold RPMI 1640 with 1% fetal bovine serum (FBS) by passage through stainless steel mesh. The cells were washed 2 times with cold RPMI-1640 containing 1% FBS and maintained at 4° C.
The lymph node cells were plated at 4×10^6 cells/ml in RPMI 1640 with 10% FBS, 250 μg/ml penicillin G, 100 μg/ml streptomycin, and 5×10^−5 M 2-mercaptoethanol. […] After 24 hours, 50 μl of supernatant was removed from each culture and frozen overnight to eliminate live cell carryover. The supernatant was warmed to […] and washed. CTLL-2 indicator cells (ATCC # T1B 214) were added (5×10^3 cells/well). This indicator cell line requires IL-2 for continued growth. After 24 hours, H^3-thymidine (1 μCi/well) was added and the cells were further incubated for 4 hours. The plates were frozen and thawed, harvested on a Tomtec 96 well harvester (Tomtec, Orange, Conn.), and counted on a Betaplate beta counter (Pharmacia, Gaithersburg, Md.).

mice = assay: Biweekly subcutaneous administration, peptide specific antibody in sera; assay type: in vivo, mouse; details: for antibodies specific for peptide (IgG or IgE) in sera: 100 μg s.c. in PBS on days 0, 14, 28 and 56, alone or in combination; for IgG antibodies to peptide, sera dilution: animals injected with the peptides in CFA
Method: This animal model experiment was designed to simulate a human treatment protocol such as that described in Example 30. Mice were administered subcutaneous injections of 100 μg peptide/100 μl PBS on days 0, 14, 28 and 56. Mice were administered peptide X or peptide Y either alone or in combination. […] There was no specific binding above background levels for IgG or IgE.

Row | Substance | IgE binding, Western immunoblot (human IgE) | T cell response of pooled lymph node cells (IL-2 production) (B6CBAF1 mice) | antibodies specific for peptide (IgG or IgE) in sera (mice) | IgG antibodies to peptide, sera dilution (mice) | other results
1 | NARILKNCVDAKMTEEDKE [Fel 4, TRFP chain 1 amino acids 37-55] | – | – | – | – | PI ([1]; Table 2, chain #1 TRFP peptides, average SI of responding patients multiplied by percent of patients with positive response (SI >2.5)): 601; SI ([1]; Table 2, chain #1 TRFP peptides, average cpm with antigen divided by cpm of T cells and APC alone, responding patients): 7.7
2 | TRFP: human T cell reactive feline protein affinity purified from house dust; two covalently linked chains | reactivity | – | – | – | –
3 | peptide X: amino acid residues 7-30 from chain 1 of TRFP (SEQ. ID. NO: 17); Table 2 lists Fel 8-3 as 7-33 (KRDVDLFLTGTPDEYVEQVAQYKALPV) | – | significant response | no antibodies specific for either peptide | 1/4500 | T cell stimulatory activity ([1]; summary in words of Tables 2 and 3): powerful activity
4 | peptide Y: amino acid residues 29-55 from chain 1 of TRFP (SEQ. ID. NO: 18) (KALPVVLENARILKNCVDAKMTEEDKE) | – | significant response | no antibodies specific for either peptide | 1/4500 | –
5 | recombinant chain 1: recombinant TRFP chain 1 expressed in E. coli | strong IgE binding | – | – | – | –
